Source: publication PMC13183915, “A platinum butterfly effect: small changes turn an anticancer drug into a non-toxic metalloantibiotic with in vivo efficacy” (npj Antimicrobials and Resistance, 2026)
In brackets after ≈: the same amount, converted by molar mass. Read-outs that look alike come from different tables or passages of the source.

Legend:
S. aureus (CCUG 62707) = experiment: MIC of COD ligand and Pt precursor, S. aureus CCUG 62707; type: cell-based
E. coli (NCTC 13476) = experiment: MIC, E. coli NCTC 13476 (with or without PMBN); type: cell-based
[1] = test system: methicillin-sensitive Staphylococcus aureus (MSSA), clinical isolate; experiment: MIC assay, MSSA clinical isolate; type: cell-based; conditions: MSSA clinical isolate
[2] = test system: methicillin-resistant S. aureus (MRSA) COL; experiment: MIC assay, MRSA COL; type: cell-based, Staphylococcus aureus; conditions: MRSA COL
Bacillus subtilis MW168 = experiment: MIC assay, B. subtilis MW168; type: cell-based; conditions: B. subtilis MW168
Escherichia coli W3110 = experiment: MIC assay, E. coli; type: cell-based; conditions: E. coli, Table S2
MSSA ATCC 29213 = experiment: Broth microdilution MIC, MSSA ATCC 29213; type: cell-based, S. aureus; conditions: Staphylococcus aureus
Procedure: The data is given in supporting information (Table S5). Before starting the experiment, a single colony was picked from MHA plate, inoculated in MHBII and incubated overnight at 37 °C with shaking for 18–24 h to get the starter culture. Antibiotic susceptibility testing was conducted according to the CLSI (Clinical & Laboratory Standards Institute) guidelines using the broth microdilution assay. 10 mg/mL stock solutions of test compounds were prepared in DMSO. Bacterial cultures were inoculated in MHBII and optical density (OD) was measured at 600 nm, followed by dilution to achieve ~10^6 CFU/mL. The compounds were tested from 64 to 0.5 mg/L in two-fold serial diluted fashion with 2.5 μL of each concentration added to well of a 96-well round bottom microtiter plate. Later, 97.5 μL of bacterial suspension was added to each well containing either test compound or appropriate controls. […] The MIC is defined as the lowest concentration of the compound at which there is absence of visible growth. For each test compound, MIC determinations were carried out independently three times using duplicate samples.

S. aureus ATCC 29213 [3] = experiment: Drug interaction study (chequerboard assay); type: cell-based; conditions: for MIC: Staphylococcus aureus, ATCC29213; for FIC B: antibiotic in combination with Pt1 / alone; for FIC (FICA+FICB) / Interference: combination with Pt1; for Interference: synergistic ≤0.5, indifferent >0.5 to 4, antagonistic >4
Procedure: All compounds were freshly prepared for the experiment. […] Following incubation, the fractional inhibitory concentration index (FICI) was calculated with the formula FICI = […], whereby FICA = MIC of drug A in combination/MIC of drug A alone and FICB = MIC of drug B in combination/MIC of drug B alone. A drug combination is considered synergistic when ∑FICI is ≤0.5, indifferent when ∑FICI is >0.5 to 4, and antagonistic when ∑FICI is >4.

[4] = test system: 36th Passage S.aureus ATCC 29213 in the presence of Pt-1; experiment: microbe, parasite or virus in culture; type: cell-based; conditions: Staphylococcus aureus, ATCC29213
Procedure: (§1) The MICs of the passaged cultures were determined every 3 days and compared to that of wild type S. aureus ATCC 29213. MIC changes were recorded for 36 passages.

HEK293T cells = type: cell-based, Human
Procedure: The control for the experiments was DMSO. HEK293T cells were cultivated in DMEM high glucose supplemented with 10% heat-inactivated fetal bovine serum, 100 U/mL of penicillin and streptomycin and maintained at a temperature of 37 °C with 5% CO2. Initially, 4000/well of cells were seeded into 96-well plates and incubated for 24 h before being exposed to compounds at concentrations ranging from 0.78, 50, and 100 µM. After 24 h of incubation, the compounds were added and serially diluted and incubated for 24 and 48 h at 37 °C 5% CO2, the cells were stained with alamar Blue, and the fluorescence excitation/ emission 540 nm/590 nm was measured using 96 well-plate reader. CC50 is defined as the lowest concentration of compound which leads to a 50% reduction in cell viability compared to untreated and DMSO control. Each experiment was repeated in triplicate.

B. subtilis bSS82 = experiment: Bacterial cytological profiling (BCP); type: cell-based, Bacillus subtilis
Excerpt: To get an overview of the cellular effects of the compounds, we employed bacterial cytological profiling (BCP). To this end, we used a strain intracellularly expressing green-fluorescent protein (GFP) from the strong, constitutive PrpsD promoter (B. subtilis bSS82[37]), stained with the membrane dye Nile red and the DNA dye DAPI. Combined with phase contrast microscopy, this setup allows simultaneous assessment of cell morphology, cell lysis, pore formation, membrane morphology, and nucleoid morphology in one assay.
BCP was performed according to Wenzel et al.[71]. In short, B. subtilis strain […] (PrpsD-gfp) was grown to an OD600 of 0.3 prior to splitting of parent cultures and addition of antibiotics. Samples were taken for microscopy after 30, 60, and 120 min of antibiotic treatment. Five minutes prior to sampling, cultures were stained with 0.5 µg/mL Nile red and 1 µg/mL DAPI for 5 min. Samples of 0.5 µL were then spotted onto 1% agarose slides[45] and images were taken immediately.
Cell length and DAPI intensity were analyzed using MicrobeJ[73]. To this end, the fit shape, rod-shaped setting was used with a minimum area of 0.5 µm, while all other settings remained at default. B. subtilis chains were seperated based on the membrane stain. Membrane stress was counted using the ObjectJ plugin[74], using the membrane setting to seperate individual cells in chains. Membrane damage was expressed as ratio of cells with visible Nile red foci and total detected cells. DNA compaction was analyzed by determining the area of the DNA and the whole cell are using advanced weka segmentation. Cells were segmented according to the GFP signal. […] Cells that were out of focus or lysed were excluded from the analysis. Statistical analysis was peformed using GraphPad Prism 10 as specified in the individual figure legends.

[5] = test system: RecA-GFP (B. subtilis UG10); experiment: Localization of RecA-GFP (DNA damage reporter); type: cell-based, Bacillus subtilis; conditions: Pt1 3.125 µM, Pt8 25 µM, CisPt 100 µM; strongest after 10 min
Procedure: To confirm whether the compounds induce DNA damage in bacterial cells, the localization of RecA was assessed. RecA is part of the bacterial SOS response to DNA damage. It is a DNA-associated protein that recognizes single-stranded DNA, which occurs as a consequence of strand breaks. If strand breaks are present, RecA accumulates at the damaged sites, appearing as foci or elongated structures. Since the RecA response is strongest shortly after stress induction, we additionally examined a 10 min timepoint in this assay.
B. subtilis strains were grown in LB containing appropriate inducer concentrations as specified in Table S10. After reaching an OD600 of 0.3, cultures were split and treated with antibiotics. Samples were withdrawn after 30 and 60 min of treatment, spotted on glass slides covered with 1% agarose films, and immediately imaged.

[6] = test system: 36th Passage S.aureus ATCC 29213 in the presence of Levofloxacin; experiment: Antibiogram of strain passaged with levofloxacin; type: cell-based; conditions: Staphylococcus aureus, ATCC29213
Procedure: as §1

S. aureus ATCC 29213 [7] = experiment: Post antibiotic effect (PAE); type: cell-based; conditions: for Time for 1 log10 increase in bacterial cfu count: 1 h exposure
Procedure: Post antibiotic effect (PAE) was determined as follows. […] Following incubation, cultures were centrifuged and washed twice with pre-warmed MHBII to remove any traces of antibiotics. Finally, cells were resuspended in drug-free MHBII and incubated further at 37 °C. Samples were taken every 1 h, serially diluted, and plated on tryptic soy agar (TSA) for enumeration of CFU. […] CFU observed immediately after the removal of the drug, and C in a similarly treated drug-free control.

B. subtilis 168CA = experiment: ROS scavenger assay (modified MIC assay); type: cell-based, Bacillus subtilis
Procedure: LB media were prepared to contain either 10 mM tiron, 150 mM thiourea, 10 mM tiron and 150 mM thiourea, or no […]. Serial two-fold dilutions of the different antibiotics were prepared in the respective media and transferred to 96-well plates. […] The OD600 was meassured in a BMG Clariostar Plus plate reader.

[8] = S.aureus ATCC 29213 (unpassaged), Table S9, read-out: MIC
[9] = compound alone, Table S8, read-out: MIC
[10] = 60 min, Pt1 3.125 µM, Pt8 25 µM, CisPt 100 µM

Structure (SMILES) | MIC (MSSA ATCC 29213; [8]) [µg/mL] | MIC (S. aureus ATCC 29213 [3]; [9]) [µg/mL] | FIC B (S. aureus ATCC 29213 [3]) | FIC (FICA+FICB) (S. aureus ATCC 29213 [3]) | Interference (S. aureus ATCC 29213 [3]) | MIC [4] [µg/mL] | further results
C1=CCCC=CCC1 [1,5-Cyclooctadiene, 1,5-cyclooctadiene] |  |  |  |  |  |  | MIC (S. aureus (CCUG 62707); Staphylococcus aureus, CCUG62707): > 200 µM; MIC (E. coli (NCTC 13476); Escherichia coli, NCTC13476): > 200 µM
N.N.O=C([O-])C1(C(=O)[O-])CCC1.[Pt+2] [Carboplatin] |  |  |  |  |  |  | MIC [1]: > 100 µM; MIC [2]: > 100 µM; MIC (Bacillus subtilis MW168): > 100 µM; MIC (Escherichia coli W3110): > 100 µM
CC(C)(O/N=C(\C(=O)N[C@@H]1C(=O)N2C(C(=O)[O-])=C(C[n+]3ccccc3)CS[C@H]12)c1csc(N)n1)C(=O)O [Ceftazidime] | 16 (≈ 29.3 µM) | 16 | 1 | 2 | no interaction | 16 (≈ 29.3 µM) | 
N.N.[Cl][Pt][Cl] [CisPt, cisplatin] |  |  |  |  |  |  | MIC [1]: >100 µM; MIC [2]: >100 µM; MIC (Bacillus subtilis MW168): >100 µM; IC50 (HEK293T cells; 24 h): 81.6 ± 5.1 µM; IC50 (HEK293T cells; 48 h): 22 ± 3.4 µM; DAPI fluorescence intensity (B. subtilis bSS82; [10]): significant reduction of the DAPI signal; nucleoid compaction (cell area vs DAPI-stained nucleoid area) (B. subtilis bSS82; [10]): clear nucleoid compaction; growth and cell length phenotype (B. subtilis bSS82; B. subtilis, 100 µM): slight growth defects and a mild cell elongation phenotype; RecA accumulation on nucleoids [5]: clear RecA accumulations
CCCCCCCCCC(=O)N[C@@H](Cc1c[nH]c2ccccc12)C(=O)N[C@H](CC(N)=O)C(=O)N[C@@H](CC(=O)O)C(=O)N[C@@H]1C(=O)NCC(=O)N[C@@H](CCCN)C(=O)N[C@@H](CC(=O)O)C(=O)N[C@H](C)C(=O)N[C@@H](CC(=O)O)C(=O)NCC(=O)N[C@H](CO)C(=O)N[C@@H]([C@H](C)CC(=O)O)C(=O)N[C@@H](CC(=O)c2ccccc2N)C(=O)O[C@@H]1C [Daptomycin] | 1 (≈ 0.617 µM) | 1 | 1 | 2 | no interaction | 1 (≈ 0.617 µM) | 
CNC(C)C1CCC(N)C(OC2C(N)CC(N)C(OC3OCC(C)(O)C(NC)C3O)C2O)O1 (stereo not drawn) [Gentamicin] | 0.25 (≈ 0.523 µM) | 0.25 | 1 | 2 | no interaction | 0.5 (≈ 1.05 µM) | 
C[C@H]1COc2c(N3CCN(C)CC3)c(F)cc3c(=O)c(C(=O)O)cn1c23 [Levofloxacin] | 0.25 (≈ 0.692 µM) | 0.25 | 1 | 2 | no interaction | 0.25 (≈ 0.692 µM) | MIC [6]: 32 µg/mL (≈ 88.6 µM); PAE (S. aureus ATCC 29213 [7]; 1x MIC): ~ 0.5 h; Time for 1 log10 increase in bacterial cfu count (S. aureus ATCC 29213 [7]; 1x MIC): ~ 3 h; PAE (S. aureus ATCC 29213 [7]; 5x MIC): ~ 1.5 h; Time for 1 log10 increase in bacterial cfu count (S. aureus ATCC 29213 [7]; 5x MIC): ~ 4 h; PAE (S. aureus ATCC 29213 [7]; 10x MIC): ~ 1.5 h; Time for 1 log10 increase in bacterial cfu count (S. aureus ATCC 29213 [7]; 10x MIC): ~ 4 h; PAE (S. aureus ATCC 29213 [7]; 10x MIC, listed as levofloxacin): 1.5 h
CC(=O)NC[C@H]1CN(c2ccc(N3CCOCC3)c(F)c2)C(=O)O1 [Linezolid] | 2 (≈ 5.93 µM) | 2 | 1 | 2 | no interaction | 2 (≈ 5.93 µM) | 
C[C@@H](O)[C@H]1C(=O)N2C(C(=O)O)=C(S[C@@H]3CN[C@H](C(=O)N(C)C)C3)[C@H](C)[C@H]12 [Meropenem] | 0.25 (≈ 0.652 µM) | 0.25 | 1 | 2 | no interaction | 0.25 (≈ 0.652 µM) | MIC [6]: 0.125 µg/mL (≈ 0.326 µM)
CN(C)c1ccc(O)c2c1C[C@H]1C[C@H]3[C@H](N(C)C)C(O)=C(C(N)=O)C(=O)[C@@]3(O)C(O)=C1C2=O [Minocycline] |  |  | 1 | 2 | no interaction | 0.125 (≈ 0.273 µM) | MIC (MSSA ATCC 29213): 0.0625 µg/mL (≈ 0.137 µM); MIC (S. aureus ATCC 29213 [3]): 0.125 µg/mL
O=C1[O][Pt]2([NH][C@@H]3CCCC[C@H]3[NH]2)[O]C1=O [Oxaliplatin] |  |  |  |  |  |  | MIC [1]: > 100 µM; MIC [2]: > 100 µM; MIC (Bacillus subtilis MW168): > 100 µM; MIC (Escherichia coli W3110): > 100 µM
[Cl][Pt-2]([Cl])([Cl])[Cl].[K+].[K+] [Pt K2PtCl4, K2PtCl4] |  |  |  |  |  |  | MIC (S. aureus (CCUG 62707); S. aureus CCUG 62707): > 200 µM; MIC (E. coli (NCTC 13476); E. coli NCTC 13476): > 200 µM
CO[C@H]1/C=C/O[C@@]2(C)Oc3c(C)c(O)c4c(O)c(c(/C=N/N5CCN(C)CC5)c(O)c4c3C2=O)NC(=O)/C(C)=C\C=C\[C@H](C)[C@H](O)[C@@H](C)[C@@H](O)[C@@H](C)[C@H](OC(C)=O)[C@@H]1C [Rifampicin] |  | 0.0078 | 1 | 2 | no interaction | 0.0156 (≈ 0.019 µM) | MIC (MSSA ATCC 29213): 0.0156 µg/mL (≈ 0.019 µM)
OO [hydrogen peroxide] |  |  |  |  |  |  | MIC fold change (increase) with scavenger (B. subtilis 168CA; medium containing 10 mM tiron (superoxide scavenger)): not significantly affected; MIC fold change (increase) with scavenger (B. subtilis 168CA; medium containing 150 mM thiourea (hydroxyl radical scavenger)): 14 fold; MIC fold change (increase) with scavengers (B. subtilis 168CA; medium containing both tiron and thiourea): no additive effect
